Measurements from US20080045482A1, “COMPOSITIONS AND METHODS FOR THE TREATMENT OF VIRAL INFECTIONS” (priority 2006, published 2008).
Values joined by “and” are separate entries in the source; they are usually repeats but may differ in a detail not shown here. Equal values may be shown once.

Tests used:
HSV-2 = details: HSV-2, in words
[1] = tested on: Yellow Fever Virus (17D strain)
[2] = tested on: Adenovirus type-1 (AdV-1, strain 65089); details: AdV-1, strain 65089, in words
[3] = tested on: West Nile Virus (WNV, strain New York); details: in words
[4] = tested on: Punta Torro Virus (strain Adames); details: in words
HIV-2 = details: HIV-2, in words
[5] = tested on: A/California/2935/03 (H1N1); type: cell-based, human influenza A virus
[6] = tested on: A/Duck/Penn/10218/84 (H5N2); type: cell-based, avian influenza A virus
[7] = tested on: Venezuelan Equine Encephalitis Virus (VEE, Trinidad strain)
[8] = tested on: Pichinde Virus (strain 4763); details: Pichinde Virus strain 4763, in words
[9] = tested on: A/NorthDakota/2463/03 (H3N2); type: cell-based, human influenza A virus
[10] = tested on: A/Equine1/Prague/1/56 (H3N8); type: cell-based, equine influenza A virus
[11] = tested on: Human Immunodeficiency Virus-1 (HIV-1); details: HIV-1, in words
[12] = tested on: Vaccinia Virus (strain WR); details: in words
[13] = tested on: Herpes Simplex Virus-1 (HSV-1); details: HSV-1, in words
B/1060/03 = type: cell-based, human influenza B virus
pH in water = type: physicochemical
Aqueous solubility = details: 37° C. in distilled water
[14] = tested on: viral strains from avian, human and equine influenza; type: cell-based, influenza virus; details: read-out: IC90 concentrations

O=C(O)P(O)(O)=S [TPFA, thiophosphonoformic acid]
inhibitory activity (HSV-2): has inhibitory activity | metabolism (Metabolism in the body): metabolized to phosphonoformic acid and thiophosphonic acid | inhibitory activity [1]: does not have inhibitory activity | inhibitory activity [2]: does not have inhibitory activity | inhibitory activity [3]: does not have inhibitory activity | inhibitory activity [4]: does not have inhibitory activity | inhibitory activity (HIV-2): has inhibitory activity | inhibitory activity [5]: has inhibitory activity | inhibitory activity [6]: has inhibitory activity | inhibitory activity [7]: does not have inhibitory activity | inhibitory activity [8]: does not have inhibitory activity | inhibitory activity [9]: has inhibitory activity | inhibitory activity [10]: has inhibitory activity | inhibitory activity [11]: has inhibitory activity | inhibitory activity [12]: does not have inhibitory activity | inhibitory activity [13]: has inhibitory activity

O=C(O)P(O)(O)=S [Thiovir]
IC50 (B/1060/03): 92 µM | IC50 [5]: 38 µM | IC50 [6]: 32 µM | pH in water (pH in water): approximately 9 | aqueous solubility (Aqueous solubility): 40.8 g/100 mL | IC50 [9]: 29 µM | IC50 [10]: 55 µM | IC90 [14]: < 250 µM and ~200 µM
